Paper PMC4685510, “A Cell Biologist’s Field Guide to Aurora Kinase Inhibitors” (Frontiers in Oncology, 2015)
Read-outs that look alike come from different tables or passages of the source.

Assays:
Test in all cases: biochemical
Format in all cases: biochemical
[1] = biological target: T1, 363 human kinases (including Aurora A/B/C) (Homo sapiens, UniProt O43781); conditions: DYRK3, [ATP] 5 µM; for remaining activity at 0.1 µM: 100 nM; for remaining activity at 0.1 µM / remaining activity at 0.5 µM: read-out: % Enzyme Activity (relative to DMSO controls)
T1 sequence (O43781 1-588): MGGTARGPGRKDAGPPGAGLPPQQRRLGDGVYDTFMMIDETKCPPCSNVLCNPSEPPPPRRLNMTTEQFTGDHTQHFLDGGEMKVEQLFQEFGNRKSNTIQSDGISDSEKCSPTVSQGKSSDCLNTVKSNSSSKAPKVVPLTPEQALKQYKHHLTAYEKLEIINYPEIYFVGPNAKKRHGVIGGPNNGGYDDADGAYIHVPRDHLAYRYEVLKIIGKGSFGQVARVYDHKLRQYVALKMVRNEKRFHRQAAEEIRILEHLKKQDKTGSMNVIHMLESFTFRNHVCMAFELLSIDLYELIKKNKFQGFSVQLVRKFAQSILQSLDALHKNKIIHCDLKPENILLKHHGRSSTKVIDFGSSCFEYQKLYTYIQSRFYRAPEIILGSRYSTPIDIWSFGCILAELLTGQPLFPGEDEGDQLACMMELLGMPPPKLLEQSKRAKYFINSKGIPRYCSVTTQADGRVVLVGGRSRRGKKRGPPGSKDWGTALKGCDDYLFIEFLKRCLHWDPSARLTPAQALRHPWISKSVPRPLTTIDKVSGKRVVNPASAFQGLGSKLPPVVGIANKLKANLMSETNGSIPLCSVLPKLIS
Excerpt: (§1) However, the Aurora A/B selectivity ratios derived from our in vitro and in vivo data can be compared to prioritize inhibitors.

[2] = biological target: T2, 363 human kinases (including Aurora A/B/C) (Homo sapiens, UniProt Q8IVH8); conditions: GLK/MAP4K3; for remaining activity at 0.1 µM: 100 nM; for remaining activity at 0.1 µM / remaining activity at 0.5 µM: read-out: % Enzyme Activity (relative to DMSO controls)
T2 sequence (Q8IVH8 1-894): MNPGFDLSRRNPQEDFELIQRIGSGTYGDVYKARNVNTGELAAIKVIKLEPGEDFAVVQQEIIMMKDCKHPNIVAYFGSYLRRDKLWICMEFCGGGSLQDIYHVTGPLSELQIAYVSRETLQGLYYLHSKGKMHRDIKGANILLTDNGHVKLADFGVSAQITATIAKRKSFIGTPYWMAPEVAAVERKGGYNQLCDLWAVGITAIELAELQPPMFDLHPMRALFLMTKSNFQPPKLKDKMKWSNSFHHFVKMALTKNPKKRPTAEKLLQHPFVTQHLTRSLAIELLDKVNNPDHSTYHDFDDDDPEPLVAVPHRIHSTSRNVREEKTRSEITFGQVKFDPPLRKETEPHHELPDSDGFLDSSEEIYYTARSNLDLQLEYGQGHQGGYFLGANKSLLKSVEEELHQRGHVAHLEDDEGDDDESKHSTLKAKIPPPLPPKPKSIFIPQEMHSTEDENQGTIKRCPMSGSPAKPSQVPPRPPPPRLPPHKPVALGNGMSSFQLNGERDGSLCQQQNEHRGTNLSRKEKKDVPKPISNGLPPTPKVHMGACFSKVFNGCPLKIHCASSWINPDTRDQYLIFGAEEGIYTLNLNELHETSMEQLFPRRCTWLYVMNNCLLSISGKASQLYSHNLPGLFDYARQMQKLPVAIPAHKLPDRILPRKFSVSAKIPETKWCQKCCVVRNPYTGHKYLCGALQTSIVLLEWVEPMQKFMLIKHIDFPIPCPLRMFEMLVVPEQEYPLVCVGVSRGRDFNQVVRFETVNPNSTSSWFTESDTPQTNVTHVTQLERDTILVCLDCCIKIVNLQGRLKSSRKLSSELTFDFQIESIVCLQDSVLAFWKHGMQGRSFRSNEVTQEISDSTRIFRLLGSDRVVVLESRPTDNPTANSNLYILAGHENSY
Excerpt: as §1

[3] = biological target: T3, 363 human kinases (including Aurora A/B/C) (Homo sapiens, UniProt P30530); conditions: AXL, [ATP] 100 µM; for remaining activity at 0.1 µM: 100 nM; for remaining activity at 0.1 µM / remaining activity at 0.5 µM: read-out: % Enzyme Activity (relative to DMSO controls)
T3 sequence (P30530 26-894): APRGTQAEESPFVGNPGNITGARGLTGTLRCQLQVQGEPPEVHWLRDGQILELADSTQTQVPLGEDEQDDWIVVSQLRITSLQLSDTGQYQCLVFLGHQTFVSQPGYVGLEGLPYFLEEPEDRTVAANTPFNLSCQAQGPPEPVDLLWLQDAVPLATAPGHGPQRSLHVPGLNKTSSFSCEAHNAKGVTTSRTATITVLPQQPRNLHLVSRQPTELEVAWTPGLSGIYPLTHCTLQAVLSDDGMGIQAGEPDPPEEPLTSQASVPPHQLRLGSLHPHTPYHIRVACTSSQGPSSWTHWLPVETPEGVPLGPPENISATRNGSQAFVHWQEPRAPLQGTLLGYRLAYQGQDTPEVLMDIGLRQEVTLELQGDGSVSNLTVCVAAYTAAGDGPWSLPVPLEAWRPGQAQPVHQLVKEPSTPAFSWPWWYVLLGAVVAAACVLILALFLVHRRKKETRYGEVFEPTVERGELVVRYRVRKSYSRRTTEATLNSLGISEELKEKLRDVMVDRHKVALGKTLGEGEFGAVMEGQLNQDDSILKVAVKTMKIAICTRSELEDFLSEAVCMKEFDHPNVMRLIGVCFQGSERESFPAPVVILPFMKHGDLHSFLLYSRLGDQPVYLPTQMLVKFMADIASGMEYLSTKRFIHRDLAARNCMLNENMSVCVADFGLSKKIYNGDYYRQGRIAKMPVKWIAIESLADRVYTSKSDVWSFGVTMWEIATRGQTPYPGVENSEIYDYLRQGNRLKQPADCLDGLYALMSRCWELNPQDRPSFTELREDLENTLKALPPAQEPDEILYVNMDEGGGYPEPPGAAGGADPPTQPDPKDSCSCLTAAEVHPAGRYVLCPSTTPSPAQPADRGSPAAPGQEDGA
Excerpt: as §1

[4] = biological target: 363 human kinases (including Aurora A/B/C) (Homo sapiens, UniProt Q00534); conditions: for remaining activity at 0.1 µM: 100 nM; for remaining activity at 0.1 µM / remaining activity at 0.5 µM: read-out: % Enzyme Activity (relative to DMSO controls); for remaining activity at 0.5 µM / % Enzyme Activity (relative to DMSO controls): 500 nM
Chain of 363 human kinases (including Aurora A/B/C) (Homo sapiens, UniProt Q00534) (Q00534 whole entry): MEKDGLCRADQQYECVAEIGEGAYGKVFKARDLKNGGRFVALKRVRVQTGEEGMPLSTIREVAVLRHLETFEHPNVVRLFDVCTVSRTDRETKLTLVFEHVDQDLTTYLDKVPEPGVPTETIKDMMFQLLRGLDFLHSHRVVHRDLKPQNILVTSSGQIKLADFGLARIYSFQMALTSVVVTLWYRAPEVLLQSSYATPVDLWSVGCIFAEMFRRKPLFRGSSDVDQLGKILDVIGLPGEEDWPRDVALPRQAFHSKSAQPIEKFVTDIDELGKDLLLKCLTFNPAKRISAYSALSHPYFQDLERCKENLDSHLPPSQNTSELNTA
Excerpt: as §1

Compound: CCn1cc(-c2ccnc3[nH]c(-c4cccc(CN(C)C)c4)cc23)c(-c2ccc(NC(=O)N(C)C)cc2)n1 [GSK1070916]
- remaining activity at 0.1 µM [1]: 96%
- remaining activity at 0.1 µM [2]: 88.3%
- remaining activity at 0.1 µM [3]: 103%
- remaining activity at 0.1 µM ([4]; CDK6/cyclin D1, [ATP] 20 µM): 98.8%
- remaining activity at 0.1 µM ([4]; CDK6/cyclin D3, [ATP] 30 µM): 102%

Compound: O=C(O)[C@]1(Cc2cccc(Nc3nccs3)n2)CC[C@@H](Oc2cccc(Cl)c2F)CC1 [MK-5108]
- remaining activity at 0.1 µM [1]: 87.2%
- remaining activity at 0.5 µM ([1]; 500 nM): 92.2%
- remaining activity at 0.1 µM [2]: 103%
- remaining activity at 0.5 µM ([2]; 500 nM): 82.7%
- remaining activity at 0.1 µM [3]: 38.5%
- remaining activity at 0.5 µM ([3]; 500 nM): 14%
- remaining activity at 0.1 µM ([4]; CDK6/cyclin D1, [ATP] 20 µM): 90.3%
- remaining activity at 0.5 µM ([4]; CDK6/cyclin D1, [ATP] 20 µM): 96.2%
- remaining activity at 0.1 µM ([4]; CDK6/cyclin D3, [ATP] 30 µM): 89.7%
- remaining activity at 0.5 µM ([4]; CDK6/cyclin D3, [ATP] 30 µM): 95.1%

Compound: O=C(c1cccc(Cl)c1F)N1CCN(Cc2cccc(Nc3nccs3)n2)CC1 [MK-8745]
- % Enzyme Activity (relative to DMSO controls) ([1]; 500 nM): 92.33%
- remaining activity at 0.5 µM ([1]; 500 nM): 92.3%
- % Enzyme Activity (relative to DMSO controls) ([2]; 500 nM): 88.41%
- remaining activity at 0.5 µM ([2]; 500 nM): 88.7%
- % Enzyme Activity (relative to DMSO controls) ([3]; 500 nM): 9.19%
- remaining activity at 0.5 µM ([3]; 500 nM): 9.98%
- % Enzyme Activity (relative to DMSO controls) ([4]; CDK6/cyclin D1, [ATP] 20 µM): 94.81%
- remaining activity at 0.5 µM ([4]; CDK6/cyclin D1, [ATP] 20 µM): 96.4%
- % Enzyme Activity (relative to DMSO controls) ([4]; CDK6/cyclin D3, [ATP] 30 µM): 93.71%
- remaining activity at 0.5 µM ([4]; CDK6/cyclin D3, [ATP] 30 µM): 95.7%
